From the supplement of paper PMC10132981, “Formate overflow drives toxic folate trapping in MTHFD1 inhibited cancer cells” (Nature Metabolism, 2023)

Assays:
SW620 = assay: cell viability relative to vehicle (resazurin, 96 h); higher = more viable
Method: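 SW620 WT or MTHFD2-/- cells were treated for 96 h with a compound dilution series (log10 M) in RPMI with normal or dialysed FBS. Viability was read by resazurin and is given as % of vehicle.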

HCT116 = assay: cell viability relative to lowest-dose well (resazurin, 96 h); higher = more viable; details: RPMI + 10% FBS
Summary of the method: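 Each value gives viability as percent of the lowest-dose well, drawn from independent replicate cultures. Cells (HCT116, 500 cells/well; SW620, 1,000 cells/well) in 50 µl RPMI with 10% FBS and a metabolite supplement were exposed in 384-well plates to compound dilution series for 96 h at 37 °C, 5% CO2. Readout was fluorescence at 595 nm from resorufin formed from resazurin (10 µg ml^−1) over 5 h.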

CN(Cc1cnc2nc(N)nc(N)c2n1)c1ccc(C(=O)N[C@@H](CCC(=O)O)C(=O)O)cc1 [methotrexate]
Details | cell viability [%]
HCT116, 0.001 µM, metabolite supplement: 50uM thymidine | 96.3
HCT116, 0.001 µM, metabolite supplement: 50uM thymidine + 250uM hypoxanthine | 98.1
HCT116, 0.001 µM, metabolite supplement: 250uM hypoxanthine | 97.7
HCT116, 0.001 µM, metabolite supplement: vehicle | 99.2
HCT116, 0.00278 µM, metabolite supplement: 50uM thymidine | 96.8
HCT116, 0.00278 µM, metabolite supplement: 50uM thymidine + 250uM hypoxanthine | 101
HCT116, 0.00278 µM, metabolite supplement: 250uM hypoxanthine | 97.5
HCT116, 0.00278 µM, metabolite supplement: vehicle | 96.37
HCT116, 0.00774 µM, metabolite supplement: 50uM thymidine | 91.8
HCT116, 0.00774 µM, metabolite supplement: 50uM thymidine + 250uM hypoxanthine | 101
HCT116, 0.00774 µM, metabolite supplement: 250uM hypoxanthine | 99.5
HCT116, 0.00774 µM, metabolite supplement: vehicle | 66
HCT116, 0.0215 µM, metabolite supplement: 50uM thymidine | 36.4
HCT116, 0.0215 µM, metabolite supplement: 50uM thymidine + 250uM hypoxanthine | 104
HCT116, 0.0215 µM, metabolite supplement: 250uM hypoxanthine | 43.6
HCT116, 0.0215 µM, metabolite supplement: vehicle | 31.4
HCT116, 0.0599 µM, metabolite supplement: 50uM thymidine | 31.6
HCT116, 0.0599 µM, metabolite supplement: 50uM thymidine + 250uM hypoxanthine | 107
HCT116, 0.0599 µM, metabolite supplement: 250uM hypoxanthine | 18.9
HCT116, 0.0599 µM, metabolite supplement: vehicle | 19.1
HCT116, 0.167 µM, metabolite supplement: 50uM thymidine | 31.9
HCT116, 0.167 µM, metabolite supplement: 50uM thymidine + 250uM hypoxanthine | 109
HCT116, 0.167 µM, metabolite supplement: 250uM hypoxanthine | 16.9
HCT116, 0.167 µM, metabolite supplement: vehicle | 17.6
HCT116, 0.464 µM, metabolite supplement: 50uM thymidine | 31.5
HCT116, 0.464 µM, metabolite supplement: 50uM thymidine + 250uM hypoxanthine | 107
HCT116, 0.464 µM, metabolite supplement: 250uM hypoxanthine | 16.7
HCT116, 0.464 µM, metabolite supplement: vehicle | 16.8
HCT116, 1.29 µM, metabolite supplement: 50uM thymidine | 31.6
HCT116, 1.29 µM, metabolite supplement: 50uM thymidine + 250uM hypoxanthine | 106
HCT116, 1.29 µM, metabolite supplement: 250uM hypoxanthine | 16.5
HCT116, 1.29 µM, metabolite supplement: vehicle | 16.4
HCT116, 3.59 µM, metabolite supplement: 50uM thymidine | 31.3
HCT116, 3.59 µM, metabolite supplement: 50uM thymidine + 250uM hypoxanthine | 105
HCT116, 3.59 µM, metabolite supplement: 250uM hypoxanthine | 16
HCT116, 3.59 µM, metabolite supplement: vehicle | 16.2
HCT116, 10 µM, metabolite supplement: 50uM thymidine | 31.5
HCT116, 10 µM, metabolite supplement: 50uM thymidine + 250uM hypoxanthine | 98.1
HCT116, 10 µM, metabolite supplement: 250uM hypoxanthine | 15.3
HCT116, 10 µM, metabolite supplement: vehicle | 16.4
SW620, log10 compound concentration (M): -8.33985, supplement / serum: RPMI + Normal FBS, base medium: RPMI-1640 | 95.4
SW620, log10 compound concentration (M): -8.33985, supplement / serum: Vehicle, base medium: RPMI + dialysed FBS | 109
SW620, log10 compound concentration (M): -8.81697, supplement / serum: Hypoxanthine + AICAr 10μM, base medium: RPMI + dialysed FBS | 117
SW620, log10 compound concentration (M): -8.81697, supplement / serum: Hypoxanthine + AICAr 30μM, base medium: RPMI + dialysed FBS | 98.4
SW620, log10 compound concentration (M): -8.81697, supplement / serum: Hypoxanthine + AICAr 50μM, base medium: RPMI + dialysed FBS | 108
SW620, log10 compound concentration (M): -8.81697, supplement / serum: Hypoxanthine + AICAr 100μM, base medium: RPMI + dialysed FBS | 90.3
SW620, log10 compound concentration (M): -8.81697, supplement / serum: Hypoxanthine, base medium: RPMI + dialysed FBS | 100
SW620, log10 compound concentration (M): -8.81697, supplement / serum: RPMI + Dialyzed FBS + 50μM Hypoxanthine, base medium: RPMI-1640 | 102
SW620, log10 compound concentration (M): -8.81697, supplement / serum: RPMI + Dialyzed FBS, base medium: RPMI-1640 | 86.4
SW620, log10 compound concentration (M): -8.81697, supplement / serum: RPMI + Normal FBS, base medium: RPMI-1640 | 97.4
SW620, log10 compound concentration (M): -8.81697, supplement / serum: Vehicle, base medium: RPMI + dialysed FBS | 119
SW620, log10 compound concentration (M): -9.29409, supplement / serum: 50 μM Hypoxanthine + 50 μM Thymidine, base medium: RPMI + dialysed FBS | 93.5
SW620, log10 compound concentration (M): -9.29409, supplement / serum: Hypoxanthine + AICAr 10μM, base medium: RPMI + dialysed FBS | 118
SW620, log10 compound concentration (M): -9.29409, supplement / serum: Hypoxanthine + AICAr 30μM, base medium: RPMI + dialysed FBS | 105
SW620, log10 compound concentration (M): -9.29409, supplement / serum: Hypoxanthine + AICAr 50μM, base medium: RPMI + dialysed FBS | 113
SW620, log10 compound concentration (M): -9.29409, supplement / serum: Hypoxanthine + AICAr 100μM, base medium: RPMI + dialysed FBS | 102
SW620, log10 compound concentration (M): -9.29409, supplement / serum: Hypoxanthine, base medium: RPMI + dialysed FBS | 97.3
SW620, log10 compound concentration (M): -9.29409, supplement / serum: RPMI + Dialyzed FBS + 50μM Hypoxanthine, base medium: RPMI-1640 | 96.1
SW620, log10 compound concentration (M): -9.29409, supplement / serum: RPMI + Dialyzed FBS, base medium: RPMI-1640 | 98.9
SW620, log10 compound concentration (M): -9.29409, supplement / serum: RPMI + Normal FBS, base medium: RPMI-1640 | 99.1
SW620, log10 compound concentration (M): -9.29409, supplement / serum: Vehicle, base medium: RPMI + dialysed FBS | 112
SW620, log10 compound concentration (M): -9.77121, supplement / serum: Hypoxanthine + AICAr 10μM, base medium: RPMI + dialysed FBS | 112.06
SW620, log10 compound concentration (M): -9.77121, supplement / serum: Hypoxanthine + AICAr 30μM, base medium: RPMI + dialysed FBS | 94.8
SW620, log10 compound concentration (M): -9.77121, supplement / serum: Hypoxanthine + AICAr 50μM, base medium: RPMI + dialysed FBS | 120.1
SW620, log10 compound concentration (M): -9.77121, supplement / serum: Hypoxanthine + AICAr 100μM, base medium: RPMI + dialysed FBS | 98.9
SW620, log10 compound concentration (M): -9.77121, supplement / serum: Hypoxanthine, base medium: RPMI + dialysed FBS | 101
SW620, log10 compound concentration (M): -9.77121, supplement / serum: RPMI + Dialyzed FBS + 50μM Hypoxanthine, base medium: RPMI-1640 | 94.8
SW620, log10 compound concentration (M): -9.77121, supplement / serum: RPMI + Dialyzed FBS, base medium: RPMI-1640 | 96.3
SW620, log10 compound concentration (M): -9.77121, supplement / serum: RPMI + Normal FBS, base medium: RPMI-1640 | 88.1
SW620, log10 compound concentration (M): -9.77121, supplement / serum: Vehicle, base medium: RPMI + dialysed FBS | 114
